{"source": "patent US20020195406A1", "about": "“Compositions and methods for disinfecting small diameter water lines” (priority 2001, published 2002)", "key": {"[1]": {"system": "microorganisms in small diameter water lines", "conditions": "after 24 hours of treatment; approximately 10%; cited from earlier work"}, "[2]": {"system": "bacteria in biofilms of dental water unit lines", "test": "Microbial counts from a dental water unit supplied with sterile water after a single 1000 ppm ClO2 30-minute exposure (Example 4)", "assay_type": "cell-based", "description": "Treatment: This study was run on a dental water unit that had been supplied with sterile water for a week, after its normal operation with tap water. The intent of the study was to determine if a unit, once disinfected, and not then re-exposed to tap water with excess levels of micro-organisms, would show the rebound in organism levels that has been observed in the previous examples. The unit was exposed to a single 1000 ppm solution of ClO2, prepared and applied for 30 minutes, as fully described in Example 1. Sampling and counting techniques were also the same."}, "[3]": {"system": "bacteria in biofilms of dental water unit lines", "test": "Microbial counts for a dental water unit after three staggered 30-min treatments with 500 ppm ClO2 (Example 2)", "assay_type": "cell-based", "source_text": "The level, however, is probably typical of the tap water in the UK, where this study was run. In this study three staggered 30-minute exposures to 500 ppm ClO2 solution were made, and counts then made from 1 to 4 days after each treatment. The techniques of treatment and sampling were similar to those described in Example 1. The ClO2 solution was similarly prepared, using half the level of sodium chlorite and hypochlorite initially, after acidification with citric acid."}, "[4]": {"system": "bacteria in biofilms of dental water unit lines", "test": "Microbial counts for a dental water unit after three consecutive-day 30-min treatments with 500 ppm ClO2 (Example 3)", "assay_type": "cell-based", "description": "The level, however, is probably typical of the tap water in the UK, where this study was run. In this study the unit was treated as in Example 2, but on three consecutive days. Samples were taken of both the incoming supply water and from the unit before treatment on each day, with a 500 ppm ClO2 solution for 30-minutes, and also 1, 2 and 5 days after the last treatment. This schedule is represented in the chart below, along with the data derived from each water sample."}, "[5]": {"system": "bacteria in biofilms of dental water unit lines", "test": "Microbial counts for 6 dental water units after one 30-min treatment with 1000 ppm ClO2 (Example 1)", "assay_type": "cell-based", "conditions": "for Microbial count of unit effluent water: individual units 31-40; for Microbial count of unit effluent water, mean: mean of 6 units", "description": "Treatment: This example involved six dental water units, in a preliminary range finding study. The study was run during a particularly warm period of weather, where concomitant warmer municipal water temperatures would be expected to exacerbate biofilm contamination problems. The units were all of the same model, and were fitted with detachable water reservoirs. 100 ml of tap water was placed in each reservoir, and water was then run through the ultrasonic outlets for 30 seconds. Thereafter 30 ml of water was collected aseptically from each outlet. The reservoirs were then disconnected, and water run out of all outlets until the units ran dry. 100 ml of a 1000 ppm treatment solution, prepared as follows, was then placed in each reservoir:\n10 ml of a 5.0% sodium chlorite solution was pipetted into a 100-ml volumetric flask already containing 75 ml of deionized water. To that was added 2.0 ml of 13% sodium hypochlorite solution (bleach). Immediately thereafter, 10.0 ml of a 1.9% citric acid solution was added, brought to volume with deionized water, sealed and the flask was agitated to mix the contents.\nAll outlets were then run until the solution came through each one. The solutions were then left in each unit for 30 minutes, after which the reservoirs were disconnected and the treatment solution was run out until all three outlets from each unit were dry. The reservoirs were then rinsed and filled with water (about 1 liter), and the water then run out of all three outlets until the reservoirs were empty.\n[…] Samples were also collected from the tap from which water to operate the units was taken.\nMicrobial Culture: The water samples were vortex mixed, and then diluted in phosphate-buffered saline in two 10-fold dilutions. The samples were then plated onto yeast extract agar by means of a spiral plater. The plates were incubated at 22° C. for four days, after which they were counted."}, "[6]": {"system": "bacteria in biofilms of dental water unit lines", "test": "Microbial counts for a dental water unit after three staggered 30-min treatments with 500 ppm ClO2 (Example 2)", "assay_type": "cell-based", "remark": "listed apart in the source"}, "biofilms": {"system": "biofilms", "conditions": "household bleach 5.25%, glutaraldehyde 3%, isopropanol 15.3%, cited from earlier work; for effluents from biofilms after contact: 15-hours contact; for recolonization returned to pretreatment levels by day: after 15-hours contact"}, "[7]": {"system": "dental unit biofilm bacteria", "conditions": "13% (130,000 ppm), used periodically in one facility; cited from earlier work"}, "biofilm bacteria": {"system": "biofilm bacteria", "conditions": "free chlorine; cited from earlier work"}, "[8]": {"conditions": "half reaction as printed; cited from earlier work"}}, "note": "Values joined by “and” are separate entries in the source; they are usually repeats but may differ in a detail not shown here. Equal entries are not always repeated."}
{"molecule": "povidone-iodine", "values": [{"measurement": "numbers of bacteria after treatment", "setting": "[1]", "result": "greatly reduced"}, {"measurement": "regrowth of bacteria after treatment", "setting": "[1]", "result": "quickly begin to rise after eight days"}]}
{"molecule": "chlorine dioxide [ClO2]", "values": [{"measurement": "Unit Count", "setting": "[2]; 4th day post-application", "result": 0, "unit": "cfu/ml"}, {"measurement": "Microbial Counts, Unit Water", "setting": "[2]; day 8, 1 day after single 1000 ppm 30-min exposure, sterile water supply, unit active", "result": 2.26, "unit": "log cfu/ml"}, {"measurement": "Microbial Counts, Unit Water", "setting": "[2]; day 9, 2 days after exposure, sterile water supply, active", "result": 1.3, "unit": "log cfu/ml"}, {"measurement": "Microbial Counts, Unit Water", "setting": "[2]; day 10, 3 days after exposure, sterile water supply, active", "result": 1.3, "unit": "log cfu/ml"}, {"measurement": "Microbial Counts, Unit Water", "setting": "[2]; day 11, 4 days after exposure, sterile water supply, active", "result": 0, "unit": "log cfu/ml"}, {"measurement": "Microbial Counts, Unit Water", "setting": "[2]; day 14, 7 days after exposure, after passive weekend (days 12-13)", "result": 3.88, "unit": "log cfu/ml"}, {"measurement": "Unit Count", "setting": "[2]; days 2-3 post-application, numerical value of 1.3 logs", "result": 20, "unit": "organisms per ml"}, {"measurement": "Unit Count", "setting": "[2]; one day after treatment, numerical value", "result": 182, "unit": "cfu/ml"}, {"measurement": "further drop", "setting": "[2]; subsequent 2 days after day 8", "result": 10, "unit": "fold"}, {"measurement": "population drop", "setting": "[2]; within a day of the ClO2 treatment", "result": "about 40,500 microbial organism per ml of water"}, {"measurement": "drop of unit count", "setting": "[2]; within a day of the ClO2 treatment, from pre-treatment average of 4.61 logs", "result": 2.35, "unit": "log cfu/ml"}, {"measurement": "reduction in organisms in the effluent water", "setting": "[3]; after the first 500 ppm treatment", "result": 83, "unit": "fold"}, {"measurement": "reduction of unit's count", "setting": "[3]; after the first 500 ppm treatment (day 0 to day 1)", "result": 1.92, "unit": "logs"}, {"measurement": "Unit Microbial Count", "setting": "[3]; day 1, one day after first 30-min 500 ppm treatment (day 0)", "result": 2.66, "unit": "log cfu/ml"}, {"measurement": "Unit Microbial Count", "setting": "[3]; day 4, four days after first 500 ppm treatment", "result": 4.66, "unit": "log cfu/ml"}, {"measurement": "Unit Microbial Count", "setting": "[3]; day 8, one day after second 500 ppm treatment", "result": 3.04, "unit": "log cfu/ml"}, {"measurement": "Unit Microbial Count", "setting": "[3]; day 11, four days after second 500 ppm treatment, before third", "result": 4.18, "unit": "log cfu/ml"}, {"measurement": "Unit Microbial Count", "setting": "[3]; day 12, one day after third 500 ppm treatment", "result": 1.60, "unit": "log cfu/ml"}, {"measurement": "Unit Microbial Count", "setting": "[3]; day 15, four days after third 500 ppm treatment", "result": 3.15, "unit": "log cfu/ml"}, {"measurement": "unit count below that of the incoming water", "setting": "[4]; Day 4", "result": 0.9, "unit": "logs"}, {"measurement": "unit count below that of the incoming water", "setting": "[4]; Day 5", "result": 0.8, "unit": "logs"}, {"measurement": "count in the issuing water higher than the supply water", "setting": "[4]; Day 8, five days after the last treatment", "result": 1.0, "unit": "log"}, {"measurement": "Unit Count", "setting": "[4]; day 2, 1 day after first 30-min 500 ppm treatment", "result": 2.7, "unit": "log cfu/ml"}, {"measurement": "Unit Count", "setting": "[4]; day 3, 1 day after second consecutive 500 ppm treatment", "result": 1.8, "unit": "log cfu/ml"}, {"measurement": "Unit Count", "setting": "[4]; day 4, 1 day after third consecutive 500 ppm treatment", "result": 2.8, "unit": "log cfu/ml"}, {"measurement": "Unit Count", "setting": "[4]; day 5, 2 days after last 500 ppm treatment", "result": 2.3, "unit": "log cfu/ml"}, {"measurement": "Unit Count", "setting": "[4]; day 8, 5 days after last 500 ppm treatment", "result": 3.9, "unit": "log cfu/ml"}, {"measurement": "unit count below that of the incoming water", "setting": "[4]; one day after the first 500 ppm treatment (day 2)", "result": 1.2, "unit": "logs"}, {"measurement": "reduction in the effluent's cfu/ml", "setting": "[5]; after day two vs T=0, 1000 ppm, 30 min", "result": 27, "unit": "fold"}, {"measurement": "difference from T=0", "setting": "[5]; after day two, 1000 ppm, 30 min", "result": 1.43, "unit": "logs"}, {"measurement": "DWU effluent count relative to tap water", "setting": "[5]; day 3 after treatment, 1000 ppm, 30 min", "result": "approximated that of the tap water"}, {"measurement": "Microbial count of unit effluent water", "setting": "[5]; 1 day after 30-min treatment with 1000 ppm ClO2", "result": "1.90 log cfu/ml and 2.08 log cfu/ml and 2.45 log cfu/ml and 3.85 log cfu/ml and 2.30 log cfu/ml and 1.30 log cfu/ml"}, {"measurement": "Microbial count of unit effluent water", "setting": "[5]; 2 days after 30-min treatment with 1000 ppm ClO2", "result": "2.78 log cfu/ml and 3.56 log cfu/ml and 3.86 log cfu/ml and 3.32 log cfu/ml and 2.51 log cfu/ml and 3.03 log cfu/ml"}, {"measurement": "Microbial count of unit effluent water", "setting": "[5]; 3 days after 30-min treatment with 1000 ppm ClO2", "result": "3.94 log cfu/ml and 3.85 log cfu/ml and 5.25 log cfu/ml and 4.34 log cfu/ml and 2.62 log cfu/ml and 2.81 log cfu/ml"}, {"measurement": "Microbial count of unit effluent water, mean", "setting": "[5]; 1 day after 30-min 1000 ppm ClO2", "result": 2.31, "unit": "log cfu/ml"}, {"measurement": "Microbial count of unit effluent water, mean", "setting": "[5]; 2 days after 30-min 1000 ppm ClO2", "result": 3.18, "unit": "log cfu/ml"}, {"measurement": "Microbial count of unit effluent water, mean", "setting": "[5]; 3 days after 30-min 1000 ppm ClO2", "result": 3.80, "unit": "log cfu/ml"}, {"measurement": "drop in bacterial colonies per ml of effluent water", "setting": "[5]; one day after treatment vs T=0, 1000 ppm, 30 min", "result": 2.3, "unit": "log"}, {"measurement": "bacterial colonies per ml of effluent water", "setting": "[5]; one day after treatment, numerical value of mean, 1000 ppm, 30 min", "result": 204, "unit": "colonies per ml"}, {"measurement": "Unit Microbial Count", "setting": "[6]; day 7, seven days after first 500 ppm treatment, before second", "result": 5.83, "unit": "log cfu/ml"}, {"measurement": "Unit Microbial Count", "setting": "[6]; day 18, 7 days after third 500 ppm treatment", "result": 4.08, "unit": "log cfu/ml"}]}
{"molecule": "O=CCCCC=O", "note": "[glutaraldehyde]", "values": [{"measurement": "effluents from biofilms after contact", "setting": "biofilms", "result": "free of recoverable bacteria"}, {"measurement": "recolonization returned to pretreatment levels by day", "setting": "biofilms", "result": 3, "unit": "days"}]}
{"molecule": "OCl", "note": "[hypochlorite]", "values": [{"measurement": "effect on bacterial counts", "setting": "[7]", "result": "dramatic reductions in bacterial counts, but these rise again rather quickly"}]}
{"molecule": "CC(C)O", "note": "[isopropanol]", "values": [{"measurement": "effluents from biofilms after contact", "setting": "biofilms", "result": "free of recoverable bacteria"}, {"measurement": "recolonization returned to pretreatment levels by day", "setting": "biofilms", "result": 15, "unit": "days"}]}
{"molecule": "OCl", "note": "[hypochlorous acid]", "values": [{"measurement": "resistance of biofilm bacteria relative to unattached cells", "setting": "biofilm bacteria", "result": "150-3000 times"}, {"measurement": "oxidation potential", "setting": "[8]", "result": 1.49, "unit": "V"}]}
